From ChEMBL document CHEMBL2396621, “Design, synthesis and biological evaluation of 2-mercapto-3-phenethylquinazoline bearing anilide fragments as potential antitumor agents: molecular docking study” (2013)

Key:
Assay type in all cases: functional
[1] = test system: OVCAR-4; test: Cytotoxicity against human OVCAR4 cells assessed as growth inhibition at 10 uM after 48 hrs by coulter counter analysis; details: OVCAR-4, 48 h, read-out: GI
[2] = test system: MCF7; test: Cytotoxicity against human MCF7 cells assessed as growth inhibition at 10 uM after 48 hrs by coulter counter analysis; details: MCF7, 48 h, read-out: GI
[3] = test system: SF-295; test: Cytotoxicity against human SF295 cells assessed as growth inhibition at 10 uM after 48 hrs by coulter counter analysis; details: SF-295, 48 h, read-out: GI
[4] = test system: LOX IMVI; test: Cytotoxicity against human LOXIMVI cells assessed as growth inhibition at 10 uM after 48 hrs by coulter counter analysis; details: read-out: GI
[5] = test system: UO-31; test: Cytotoxicity against human UO31 cells assessed as growth inhibition at 10 uM after 48 hrs by coulter counter analysis; details: UO-31, 48 h, read-out: GI
[6] = test system: CAKI-1; test: Cytotoxicity against human Caki1 cells assessed as growth inhibition at 10 uM after 48 hrs by coulter counter analysis; details: CAKI-1, 48 h, read-out: GI
[7] = test system: UACC-257; test: Cytotoxicity against human UACC257 cells assessed as growth inhibition at 10 uM after 48 hrs by coulter counter analysis; details: UACC-257, 48 h, read-out: GI
[8] = test system: HT-29; test: Cytotoxicity against human HT-29 cells assessed as growth inhibition at 10 uM after 48 hrs by coulter counter analysis; details: HT-29, 48 h, read-out: GI
[9] = test system: OVCAR-5; test: Cytotoxicity against human OVCAR5 cells assessed as growth inhibition at 10 uM after 48 hrs by coulter counter analysis; details: OVCAR-5, 48 h, read-out: GI
[10] = test system: SNB-19; test: Cytotoxicity against human SNB19 cells assessed as growth inhibition at 10 uM after 48 hrs by coulter counter analysis; details: SNB-19, 48 h, read-out: GI
[11] = test system: 786-0; test: Cytotoxicity against human 786-0 cells assessed as growth inhibition at 10 uM after 48 hrs by coulter counter analysis; details: 786-0, 48 h, read-out: GI
[12] = test system: KM12; test: Cytotoxicity against human KM12 cells assessed as growth inhibition at 10 uM after 48 hrs by coulter counter analysis; details: KM12, 48 h, read-out: GI
[13] = Cytotoxicity against human NCI-ADR-RES cells assessed as growth inhibition at 10 uM after 48 hrs by coulter counter analysis; details: read-out: GI
[14] = test system: RXF 393; test: Cytotoxicity against human RXF393 cells assessed as growth inhibition at 10 uM after 48 hrs by coulter counter analysis; details: RXF 393, 48 h, read-out: GI
[15] = test system: IGROV-1; test: Cytotoxicity against human IGROV1 cells assessed as growth inhibition at 10 uM after 48 hrs by coulter counter analysis; details: IGROV-1, 48 h, read-out: GI
[16] = test system: M14; test: Cytotoxicity against human M14 cells assessed as growth inhibition at 10 uM after 48 hrs by coulter counter analysis; details: M14, 48 h, read-out: GI
[17] = test system: SF-268; test: Cytotoxicity against human SF268 cells assessed as growth inhibition at 10 uM after 48 hrs by coulter counter analysis; details: SF-268, 48 h, read-out: GI
[18] = test system: MDA-MB-468; test: Cytotoxicity against human MDA-MB-468 cells assessed as growth inhibition at 10 uM after 48 hrs by coulter counter analysis; details: MDA-MB-468, 48 h, read-out: GI
[19] = test system: A498; test: Cytotoxicity against human A498 cells assessed as growth inhibition at 10 uM after 48 hrs by coulter counter analysis; details: A498, 48 h, read-out: GI
[20] = Cytotoxicity against human EKVX cells assessed as growth inhibition at 10 uM after 48 hrs by coulter counter analysis; details: read-out: GI
[21] = test system: TK-10; test: Cytotoxicity against human TK10 cells assessed as growth inhibition at 10 uM after 48 hrs by coulter counter analysis; details: TK-10, 48 h, read-out: GI
[22] = test system: SK-OV-3; test: Cytotoxicity against human SKOV3 cells assessed as growth inhibition at 10 uM after 48 hrs by coulter counter analysis; details: SK-OV-3, 48 h, read-out: GI
[23] = test system: SNB-75; test: Cytotoxicity against human SNB75 cells assessed as growth inhibition at 10 uM after 48 hrs by coulter counter analysis; details: SNB-75, 48 h, read-out: GI
[24] = test system: NCI-H226; test: Cytotoxicity against human NCI-H226 cells assessed as growth inhibition at 10 uM after 48 hrs by coulter counter analysis; details: NCI-H226, 48 h, read-out: GI
[25] = test system: T47D; test: Cytotoxicity against human T47D cells assessed as growth inhibition at 10 uM after 48 hrs by coulter counter analysis; details: read-out: GI
[26] = test system: HCT-15; test: Cytotoxicity against human HCT15 cells assessed as growth inhibition at 10 uM after 48 hrs by coulter counter analysis; details: HCT-15, 48 h, read-out: GI
[27] = test system: UACC-62; test: Cytotoxicity against human UACC62 cells assessed as growth inhibition at 10 uM after 48 hrs by coulter counter analysis; details: UACC-62, 48 h, read-out: GI
[28] = test system: A549; test: Cytotoxicity against human A549 cells assessed as growth inhibition at 10 uM after 48 hrs by coulter counter analysis; details: A549, 48 h, read-out: GI
[29] = test system: SW-620; test: Cytotoxicity against human SW620 cells assessed as growth inhibition at 10 uM after 48 hrs by coulter counter analysis; details: SW-620, 48 h, read-out: GI
[30] = test system: PC-3; test: Cytotoxicity against human PC3 cells assessed as growth inhibition at 10 uM after 48 hrs by coulter counter analysis; details: PC-3, 48 h, read-out: GI
[31] = test system: SN12C; test: Cytotoxicity against human SN12C cells assessed as growth inhibition at 10 uM after 48 hrs by coulter counter analysis; details: read-out: GI
[32] = test system: MDA-MB-435; test: Cytotoxicity against human MDA-MB-435 cells assessed as growth inhibition at 10 uM after 48 hrs by coulter counter analysis; details: MDA-MB-435, 48 h, read-out: GI
[33] = test system: NCI-H322M; test: Cytotoxicity against human NCI-H322M cells assessed as growth inhibition at 10 uM after 48 hrs by coulter counter analysis; details: read-out: GI
[34] = test system: U-251; test: Cytotoxicity against human U251 cells assessed as growth inhibition at 10 uM after 48 hrs by coulter counter analysis; details: U-251, 48 h, read-out: GI
[35] = test system: COLO 205; test: Cytotoxicity against human COLO205 cells assessed as growth inhibition at 10 uM after 48 hrs by coulter counter analysis; details: COLO 205, 48 h, read-out: GI
[36] = test system: SK-MEL-28; test: Cytotoxicity against human SK-MEL-28 cells assessed as growth inhibition at 10 uM after 48 hrs by coulter counter analysis; details: SK-MEL-28, 48 h, read-out: GI
[37] = test system: OVCAR-8; test: Cytotoxicity against human OVCAR8 cells assessed as growth inhibition at 10 uM after 48 hrs by coulter counter analysis; details: OVCAR-8, 48 h, read-out: GI
[38] = test system: Malme-3M; test: Cytotoxicity against human MALME-3M cells assessed as growth inhibition at 10 uM after 48 hrs by coulter counter analysis; details: read-out: GI

| SMILES | inhibition of growth at 10 µM [1] [%] | inhibition of growth at 10 µM [2] [%] | inhibition of growth at 10 µM [3] [%] | inhibition of growth at 10 µM [4] [%] | inhibition of growth at 10 µM [5] [%] | inhibition of growth at 10 µM [6] [%] | inhibition of growth at 10 µM [7] [%] | inhibition of growth at 10 µM [8] [%] | inhibition of growth at 10 µM [9] [%] | inhibition of growth at 10 µM [10] [%] | inhibition of growth at 10 µM [11] [%] | inhibition of growth at 10 µM [12] [%] | inhibition of growth at 10 µM [13] [%] | inhibition of growth at 10 µM [14] [%] | inhibition of growth at 10 µM [15] [%] | inhibition of growth at 10 µM [16] [%] | inhibition of growth at 10 µM [17] [%] | inhibition of growth at 10 µM [18] [%] | inhibition of growth at 10 µM [19] [%] | inhibition of growth at 10 µM [20] [%] | also measured |
| --- | --- | --- | --- | --- | --- | --- | --- | --- | --- | --- | --- | --- | --- | --- | --- | --- | --- | --- | --- | --- | --- |
| CC(=O)c1ccc(NC(=O)CSc2nc3ccccc3c(=O)n2CCc2ccccc2)cc1 | 25 | 16 | 21 | 25 | 10 | 16 | 36 | 12 | 10 | 20 | < 10 | 18 | 33 | < 10 | 20 | 21 | 32 | 14 | < 10 | 29 | inhibition of growth at 10 µM [21]: < 10%; inhibition of growth at 10 µM [22]: 17%; inhibition of growth at 10 µM [23]: 41%; inhibition of growth at 10 µM [24]: 16%; inhibition of growth at 10 µM [25]: 19%; inhibition of growth at 10 µM [26]: 21%; inhibition of growth at 10 µM [27]: 28%; inhibition of growth at 10 µM [28]: 29%; inhibition of growth at 10 µM [29]: 14%; inhibition of growth at 10 µM [30]: 20%; inhibition of growth at 10 µM [31]: 13%; inhibition of growth at 10 µM [32]: 23%; inhibition of growth at 10 µM [33]: 27%; inhibition of growth at 10 µM [34]: 10%; inhibition of growth at 10 µM [35]: 12%; inhibition of growth at 10 µM [36]: 23%; inhibition of growth at 10 µM [37]: 42%; inhibition of growth at 10 µM [38]: 13% |
| Cc1ccc(NC(=O)CSc2nc3ccccc3c(=O)n2CCc2ccccc2)cc1 | < 10 | 23 | 12 | 14 | < 10 | 13 | 17 | < 10 | < 10 | 22 | < 10 | 11 | < 10 | 10 | 20 | < 10 | 19 | 29 | < 10 | 29 | inhibition of growth at 10 µM [21]: < 10%; inhibition of growth at 10 µM [22]: 20%; inhibition of growth at 10 µM [23]: 12%; inhibition of growth at 10 µM [24]: < 10%; inhibition of growth at 10 µM [25]: 44%; inhibition of growth at 10 µM [26]: 10%; inhibition of growth at 10 µM [27]: 20%; inhibition of growth at 10 µM [28]: 21%; inhibition of growth at 10 µM [29]: 10%; inhibition of growth at 10 µM [30]: 14%; inhibition of growth at 10 µM [31]: < 10%; inhibition of growth at 10 µM [32]: 17%; inhibition of growth at 10 µM [33]: 15%; inhibition of growth at 10 µM [34]: 11%; inhibition of growth at 10 µM [35]: 15%; inhibition of growth at 10 µM [36]: 22%; inhibition of growth at 10 µM [37]: 27%; inhibition of growth at 10 µM [38]: 17% |
| O=C(CSc1nc2ccccc2c(=O)n1CCc1ccccc1)NCc1ccccc1 | 13 | 21 | 27 | 17 | 33 | 32 | < 10 | < 10 | < 10 | 17 | 15 | < 10 | 19 | 16 | 39 | 14 | 28 | < 10 | < 10 | 25 | inhibition of growth at 10 µM [21]: 20%; inhibition of growth at 10 µM [22]: 14%; inhibition of growth at 10 µM [23]: 38%; inhibition of growth at 10 µM [24]: 13%; inhibition of growth at 10 µM [25]: 20%; inhibition of growth at 10 µM [26]: 20%; inhibition of growth at 10 µM [27]: 29%; inhibition of growth at 10 µM [28]: 17%; inhibition of growth at 10 µM [29]: < 10%; inhibition of growth at 10 µM [30]: 29%; inhibition of growth at 10 µM [31]: 20%; inhibition of growth at 10 µM [32]: 19%; inhibition of growth at 10 µM [33]: 26%; inhibition of growth at 10 µM [34]: 24%; inhibition of growth at 10 µM [35]: < 10%; inhibition of growth at 10 µM [36]: 12%; inhibition of growth at 10 µM [37]: 40%; inhibition of growth at 10 µM [38]: 14% |
